According to PubChem BioAssay (NCI):
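GI50 is the concentration that inhibits growth by half. TGI: total growth inhibition.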

How the values were obtained:
Experiment in all cases: growth of human tumour cells (NCI), 384-well format
786-0 renal = tested on: 786-0 renal
A498 renal = tested on: A498 renal
A549 NSCLC = tested on: A549 NSCLC
ACHN renal = tested on: ACHN renal
BT-549 breast = tested on: BT-549 breast
CAKI-1 renal = tested on: CAKI-1 renal
CCRF-CEM leukemia = tested on: CCRF-CEM leukemia
COLO 205 colon = tested on: COLO 205 colon
DU-145 prostate = tested on: DU-145 prostate
HCC-2998 colon = tested on: HCC-2998 colon
HCT-15 colon = tested on: HCT-15 colon
HL-60(TB) leukemia = tested on: HL-60(TB) leukemia
HOP-62 NSCLC = tested on: HOP-62 NSCLC
HOP-92 NSCLC = tested on: HOP-92 NSCLC
HS 578T breast = tested on: HS 578T breast
HT29 colon = tested on: HT29 colon
IGROV1 ovarian = tested on: IGROV1 ovarian
K-562 leukemia = tested on: K-562 leukemia
KM12 colon = tested on: KM12 colon
LOX IMVI melanoma = tested on: LOX IMVI melanoma
M14 melanoma = tested on: M14 melanoma
MALME-3M melanoma = tested on: MALME-3M melanoma
MCF7 breast = tested on: MCF7 breast
MDA-MB-231 breast = tested on: MDA-MB-231 breast
MDA-MB-435 melanoma = tested on: MDA-MB-435 melanoma
MDA-MB-468 breast = tested on: MDA-MB-468 breast
MOLT-4 leukemia = tested on: MOLT-4 leukemia
NCI-H226 lung = tested on: NCI-H226 lung
NCI-H23 lung = tested on: NCI-H23 lung
NCI-H322M lung = tested on: NCI-H322M lung
NCI-H460 NSCLC = tested on: NCI-H460 NSCLC
NCI-H522 lung = tested on: NCI-H522 lung
NCI/ADR-RES ovarian = tested on: NCI/ADR-RES ovarian
OVCAR-3 ovarian = tested on: OVCAR-3 ovarian
OVCAR-4 ovarian = tested on: OVCAR-4 ovarian
OVCAR-5 ovarian = tested on: OVCAR-5 ovarian
OVCAR-8 ovarian = tested on: OVCAR-8 ovarian
PC-3 prostate = tested on: PC-3 prostate
RPMI-8226 leukemia = tested on: RPMI-8226 leukemia
RXF 393 renal = tested on: RXF 393 renal
SF-268 CNS = tested on: SF-268 CNS
SF-295 CNS = tested on: SF-295 CNS
SF-539 CNS = tested on: SF-539 CNS
SK-MEL-28 melanoma = tested on: SK-MEL-28 melanoma
SK-MEL-5 melanoma = tested on: SK-MEL-5 melanoma
SK-OV-3 ovarian = tested on: SK-OV-3 ovarian
SN12C renal = tested on: SN12C renal
SNB-19 CNS = tested on: SNB-19 CNS
SNB-75 CNS = tested on: SNB-75 CNS
SR leukemia = tested on: SR leukemia
SW-620 colon = tested on: SW-620 colon
T-47D breast = tested on: T-47D breast
TK-10 renal = tested on: TK-10 renal
U251 glioblastoma = tested on: U251 glioblastoma
UACC-62 melanoma = tested on: UACC-62 melanoma
UO-31 renal = tested on: UO-31 renal

Cc1cc2c(F)c(Oc3ncnn4cc(OC[C@@H](C)OC(=O)[C@H](C)N)c(C)c34)ccc2[nH]1
GI50 ([…]-0 renal): 3.54 µM | GI50 (A498 renal): 5.04 µM | GI50 (A549 NSCLC): 4.99 µM | TGI (A549 NSCLC): 17.7 µM | GI50 (ACHN renal): 2.97 µM | GI50 (BT-549 breast): 3.65 µM | TGI (BT-549 breast): 15.3 µM | GI50 (CAKI-1 renal): 3.65 µM | TGI (CAKI-1 renal): 16.4 µM | GI50 (CCRF-CEM leukemia): 1.84 µM | TGI (CCRF-CEM leukemia): 6.14 µM | GI50 (COLO 205 colon): 0.847 µM | TGI (COLO 205 colon): 12.7 µM | GI50 (DU-145 prostate): 3.74 µM | GI50 (HCC-2998 colon): 3.59 µM | GI50 (HCT-15 colon): 0.914 µM | TGI (HCT-15 colon): 3.46 µM | GI50 (HL-60(TB) leukemia): 1.04 µM | TGI (HL-60(TB) leukemia): 3.2 µM | GI50 (HOP-62 NSCLC): 6.64 µM | TGI (HOP-62 NSCLC): 20.3 µM | GI50 (HOP-92 NSCLC): 4.17 µM | TGI (HOP-92 NSCLC): 17.3 µM | GI50 (HS 578T breast): 6.21 µM | TGI (HS 578T breast): 17.7 µM | GI50 (HT29 colon): 2.77 µM | TGI (HT29 colon): 12 µM | GI50 (IGROV1 ovarian): 4.71 µM | GI50 (K-562 leukemia): 1.04 µM | TGI (K-562 leukemia): 3.18 µM | GI50 (KM12 colon): 3.17 µM | TGI (KM12 colon): 13.8 µM | GI50 (LOX IMVI melanoma): 1.43 µM | TGI (LOX IMVI melanoma): 3.81 µM | GI50 (M14 melanoma): 4.9 µM | TGI (M14 melanoma): 17.4 µM | GI50 (MALME-3M melanoma): 2.07 µM | TGI (MALME-3M melanoma): 12.5 µM | GI50 (MCF7 breast): 3.45 µM | TGI (MCF7 breast): 16.7 µM | GI50 (MDA-MB-231 breast): 1.82 µM | TGI (MDA-MB-231 breast): 18.2 µM | GI50 (MDA-MB-435 melanoma): 7.77 µM | GI50 (MDA-MB-468 breast): 2.16 µM | TGI (MDA-MB-468 breast): 5.55 µM | GI50 (MOLT-4 leukemia): 0.272 µM | TGI (MOLT-4 leukemia): 0.612 µM | GI50 (NCI-H226 lung): 4.33 µM | TGI (NCI-H226 lung): 18 µM | GI50 (NCI-H23 lung): 10.1 µM | TGI (NCI-H23 lung): 21.7 µM | GI50 (NCI-H322M lung): 7.3 µM | TGI (NCI-H322M lung): 19.7 µM | GI50 (NCI-H460 NSCLC): 0.643 µM | TGI (NCI-H460 NSCLC): 4.37 µM | GI50 (NCI-H522 lung): 4.57 µM | GI50 (NCI/ADR-RES ovarian): 3.52 µM | GI50 (OVCAR-3 ovarian): 6.03 µM | GI50 (OVCAR-4 ovarian): 7.98 µM | GI50 (OVCAR-5 ovarian): 8.29 µM | GI50 (OVCAR-8 ovarian): 4.41 µM | TGI (OVCAR-8 ovarian): 17.2 µM | GI50 (PC-3 prostate): 3.17 µM | GI50 (RPMI-8226 leukemia): 0.467 µM | TGI (RPMI-8226 leukemia): 1.94 µM | GI50 (RXF 393 renal): 3.75 µM | TGI (RXF 393 renal): 14.2 µM | GI50 (SF-268 CNS): 3.4 µM | TGI (SF-268 CNS): 16.8 µM | GI50 (SF-295 CNS): 3.24 µM | TGI (SF-295 CNS): 12.8 µM | GI50 (SF-539 CNS): 2.25 µM | TGI (SF-539 CNS): 10.9 µM | GI50 (SK-MEL-28 melanoma): 3.29 µM | TGI (SK-MEL-28 melanoma): 17.5 µM | GI50 (SK-MEL-5 melanoma): 0.984 µM | GI50 (SK-OV-3 ovarian): 5.13 µM | GI50 (SN12C renal): 4.53 µM | GI50 (SNB-19 CNS): 5.13 µM | GI50 (SNB-75 CNS): 4.41 µM | TGI (SNB-75 CNS): 17.1 µM | GI50 (SR leukemia): 0.0548 µM | TGI (SR leukemia): 0.241 µM | GI50 (SW-620 colon): 4.96 µM | TGI (SW-620 colon): 17.7 µM | GI50 (T-47D breast): 3.34 µM | GI50 (TK-10 renal): 2.27 µM | GI50 (U251 glioblastoma): 3.67 µM | GI50 (UACC-62 melanoma): 3.13 µM | TGI (UACC-62 melanoma): 17.5 µM | GI50 (UO-31 renal): 6.25 µM
